# In publication PMC10121968, “Fosgonimeton, a Novel Positive Modulator of the HGF/MET System, Promotes Neurotrophic and Procognitive Effects in Models of Dementia” (Neurotherapeutics, 2022):
# Non-standard residues stand in square brackets, D forms with d. Residues, ends and D or L forms follow the SMILES beside them. *: point of attachment. Hexanoyl = CCCCCC(=O)*; Ahx = NCCCCCC(=O)O
# How the values were obtained:
# ERK (Thr202/Tyr204) = experiment: Phospho-ERK HTRF assay in HEK293 cells; assay type: cell-based, human; settings: HEK293, subthreshold HGF 0.1 ng/mL + fosgo-AM 1 µM, vs HGF alone
# Text: To determine phosphoactivation status of the intracellular signaling molecules ERK (Thr202/Tyr204) or AKT (Ser473), we used homogenous time-resolved fluorescence (HTRF) kits to assess phosphorylation status based on the energy transfer between donor and acceptor phospho-ERK (pERK) or phospho-AKT (pAKT) antibodies. HTRF kit processing for pERK (Phospho-ERK [Thr202/Tyr204] cellular Advanced kit, #64AERPEG, Cisbio, Codolet, France) and pAKT (Phospho-AKT [Ser473] cellular kit, #64AKSPEG, Cisbio, Codolet, France) were carried out per manufacturer instructions. In brief, HEK293 cells were grown at 37 °C, 5% CO2 in DMEM + 10% FBS until approximately 80% confluent. Cells were seeded in polystyrene-treated 96-well cell culture plates at approximately 50,000 cells/well and cultured overnight in 50 µL serum-free growth media. […] Fluorescence emission at 2 different wavelengths (665 nm and 620 nm) were measured on an Envision plate reader (PerkinElmer, Waltham, Massachusetts), and the HTRF ratio of the acceptor and donor emission signals for each well was calculated as follows: HTRF ratio = (665 nm/620 nm) × 10,000. […] Data were assessed for normality (Shapiro–Wilk) and homoscedasticity (Brown-Forsythe). Statistical significance was determined by one-way analysis of variance (ANOVA) with Tukey’s multiple comparison post-test. […]
# IL-6 = IL-6 release in LPS-challenged THP-1 macrophages (HTRF); assay type: cell-based, human; settings: 1 µM, 20 min pretreatment, LPS 50 ng/mL 24 h, vs LPS + vehicle
# Method: To determine the effect of fosgo-AM on LPS-induced cytokine release, we sought to determine the levels of interleukin-1β (IL-1β), interleukin-6 (IL-6), and tumor necrosis factor-α (TNF-α) in LPS-challenged THP-1–differentiated macrophages in the presence and absence of fosgo-AM. THP-1 monocytes were grown at 37 °C, 5% CO2 in Roswell Park Memorial Institute (RPMI) medium + 10% FBS until approximately 80% confluent. Cells were seeded in polystyrene-treated 96-well cell culture plates at approximately 50,000 cells/well in 100-µL complete media. 100 µL Phorbol myristate acetate was then added to each well for a final concentration of 100 ng/mL. The plate was then incubated for 3 days at 37 °C, 5% CO2 to prime the monocytes into macrophages. […] For cytokine quantification, cell culture supernatant was assayed by HTRF kits to assess levels of IL-1β (Human IL-1β kit, #62HIL1BPEG, Cisbio, Codolet, France) and IL-6 (Human IL-6 kit, 62HIL06PET, Cisbio, Codolet, France), and by ELISA (Human TNF-α ELISA kit, KHC3011, ThermoFisher, Waltham, Massachusetts) to determine the levels of TNF-α. […] Fluorescence emission at 2 different wavelengths (665 nm and 620 nm) were measured on an Envision plate reader (PerkinElmer, Waltham, Massachusetts), and HTRF ratio of the acceptor and donor emission signals for each well was calculated as follows: HTRF ratio = (665 nm/620 nm) × 10,000. […]
compound,measurement,setting,value
CCCCCC(=O)N[C@@H](Cc1ccc(O)cc1)C(=O)N[C@H](C(=O)NCCCCCC(N)=O)[C@@H](C)CC [fosgo-AM] (Hexanoyl-Tyr-Ile-[Ahx]-NH2),pERK levels,ERK (Thr202/Tyr204),significant increase
same,IL-6 release,IL-6,significant decrease
